Data: patent US9433624B2, “Methods and compositions for the treatment of metabolic disorders” (BIOMARIN PHARMACEUTICAL INC., priority 2003, dated 2016)
Where two headings read alike, the source gives them in different places. Each block holds one compound with its values, some of them ahead of it.

Tests used:
[1] = test system: humans with elevated blood levels of phenylalanine (>600 μmol/L); test: Open label single ascending oral dose study of 6R-BH4, blood Phe before and 24 hours after each dose; assay type: in vivo
Text: (§1) Criteria for inclusion in the study included (1) baseline blood Phe levels of >600 μmol/L, (2) age of at least 8 years. Criteria for exclusion from the study included (1) pregnancy or breastfeeding, (2) concurrent diseases or conditions that require medication or treatment, (3) concurrent treatment with any drug known to inhibit folate synthesis, and (4) treatment with any investigational drug within 30 days. Each of the patients also was identified as having a mutation in the phenylalanine hydroxylase (PAH) gene. Study subjects underwent baseline assessments, including medical history with assessment of phenylketonuria (PKU) or hyperphenylalaninemia (HPA) related signs and symptoms, physical examinations, vital signs, serum amino acid (i.e., phenylalanine, tyrosine, and tryptophan) blood levels, and routine laboratory tests (chemistry, hematology, and urinalysis) before inclusion in the study.
Within a maximum of 4 weeks following the completion of baseline assessments, eligible subjects began the first stage of the study. Single ascending doses of 10 mg/kg, 20 mg/kg and 40 mg/kg of 6R-BH4 were administered orally, with a washout period of at least 7 days between each dose, and subjects were monitored 24 hours after each dose. Subjects underwent a safety assessment and blood amino acid (i.e, phenylalanine, tyrosine, and tryptophan) level measurements before and 24 hours after each 6R-BH4 dose. Blood pressure was measured 30 minutes and 1 hour after each dose. Safety assessments included physical examinations, vital signs, serial assessment of PKU or HPA related signs and symptoms, recording of adverse events, and monitoring of changes in laboratory parameters (chemistry, hematology, and urinalysis). Subjects were instructed to continue their usual diet without any modification, and to record daily intake of food and beverages throughout the study.

[2] = test system: humans with elevated blood levels of phenylalanine (>600 μmol/L); test: Multiple dose study (7-day loading test), 6R-BH4 daily for 7 days, blood Phe and tyrosine; assay type: in vivo
Text: as §1
After the first stage of the study was completed, subjects entered the second stage of the study, during which they received 10 mg/kg of 6R-BH4 daily in an oral dosage form, for a total of 7 days. After a washout period of at least 7 days, each subject received 20 mg/kg of 6R-BH4 daily for a total of 7 days. During the second stage of the study, subjects were monitored before dosing, at 24 and 72 hours after first dose, and on the 7th day of dosing at each of the two dose levels. Monitoring included a safety assessment as described above, measurement of serum blood amino acid (i.e, phenylalanine, tyrosine, and tryptophan) levels and evaluation of phenylalanine and tyrosine oral intake. Subjects were instructed to continue their usual diet without any modification, and to record daily intake of food and beverages throughout the study.
Of those 14 patients, 10 (71%) responded favorably to 10 mg/kg/day. […] The individual blood Phe responses to multiple doses of 10 mg/kg BH4 are shown in 11 adults (FIG. 17) and 9 children (FIG. 19). The individual blood Phe responses to multiple doses of 20 mg/kg BH4 are shown in 11 adults (FIG. 18) and in 9 children (FIG. 20).

[3] = Schircks dihydrochloride salt, oral tablets; cited from earlier work
[4] = room temperature; cited from earlier work
[5] = Storage stability of the polymorph form of BH4×2HCl, quality checked by HPLC; assay type: physicochemical; settings: minigrip bag, 40° C., 75% relative humidity
Method: The polymorph forms of BH4 described in the Moser Applications are a very stable crystalline form of the drug. The polymorph form can be easily filtered off, dried and ground to particle sizes desired for pharmaceutical formulations. These outstanding properties renders this polymorph form especially feasible for pharmaceutical application. The stability of the polymorph form of BH4 was determined after the BH4×2HCl (the polymorph form) had been stored for 8 months in a minigrip bag at 40° C. and 75% relative humidity. Quality was checked in different intervals throughout the 8 month period by HPLC.

[6] = for hygroscopicity / water adsorbed (content): dihydrochloride; for water adsorbed (content): released on heating at 10° C./minute

Compound: C[C@H](O)[C@H](O)[C@H]1CNc2nc(N)[nH]c(=O)c2N1 [6R-BH4, (6R)-5,6,7,8-tetrahydrobiopterin]
blood Phe decline from baseline ([1]; single oral dose 10 mg/kg): 10%±0.26%
blood Phe mean decline from baseline ([1]; single oral dose 20 mg/kg): 17%±0.28%
blood Phe mean decline from baseline ([1]; single oral dose 40 mg/kg): 27%±0.25%
responders to 20 mg/kg who also responded to the lower dose (30% or greater reduction in blood Phe) ([2]; 10 mg/kg/day, 10 of the 14 responders): 71%
patients with sustained decrease in blood Phe concentration (responsive = decline of 30%) ([2]; 20 mg/kg daily, 14/20 patients): 70 % of the patients
increase in blood tyrosine from baseline, some patients ([2]; 10 and 20 mg/kg daily, some but not all patients): > 80%
half-life [3]: approximately 3.5 hours
shelf-life [4]: < 8 h

HPLC [% area] ([5]; 0 months (at the beginning)): 98.4 % area
HPLC [% area] ([5]; after 1 month): 98.3 % area
HPLC [% area] ([5]; after 1 week): 99.4 % area
HPLC [% area] ([5]; after 3 months): 99.1 % area
HPLC [% area] ([5]; after 8 months): 98.1 % area
Compound: C[C@H](O)[C@H](O)[C@H]1CNc2nc(N)[nH]c(=O)c2N1.Cl.Cl [BH4×2HCl, (6R)-L-erythro-tetrahydrobiopterin dihydrochloride]

hygroscopicity [6]: non-hygroscopic
Compound: C[C@H](O)[C@H](O)[C@H]1CNc2nc(N)[nH]c(=O)c2N1.Cl.Cl [Form E, (6R)-L-erythro-tetrahydrobiopterin dihydrochloride]

hygroscopicity ([6]; hydrate form C): slightly hygroscopic
Compound: C[C@H](O)[C@H](O)[C@H]1CNc2nc(N)[nH]c(=O)c2N1.Cl.Cl [Hydrate form C, (6R)-L-erythro-tetrahydrobiopterin dihydrochloride]

hygroscopicity [6]: slightly hygroscopic
water adsorbed (content) [6]: about 3 percent by weight
phase equilibration test of suspensions: form after filtration and air drying ([6]; tetrahydrofuran or tertiary-butyl methyl ether, five days and 18 hours respectively, under nitrogen, room temperature): unchanged polymorph form A
Compound: C[C@H](O)[C@H](O)[C@H]1CNc2nc(N)[nH]c(=O)c2N1.Cl.Cl [Polymorph A, (6R)-L-erythro-tetrahydrobiopterin dihydrochloride]

hygroscopicity [6]: slightly hygroscopic
Compound: C[C@H](O)[C@H](O)[C@H]1CNc2nc(N)[nH]c(=O)c2N1.Cl.Cl [Polymorph B, (6R)-L-erythro-tetrahydrobiopterin dihydrochloride]

hygroscopicity [6]: slightly hygroscopic
water adsorbed (content) [6]: about 3 percent by weight
Compound: C[C@H](O)[C@H](O)[C@H]1CNc2nc(N)[nH]c(=O)c2N1.Cl.Cl [Polymorph F, (6R)-L-erythro-tetrahydrobiopterin dihydrochloride]

hygroscopicity [6]: slightly hygroscopic
water adsorbed (content) [6]: about 2.0 percent by weight
Compound: C[C@H](O)[C@H](O)[C@H]1CNc2nc(N)[nH]c(=O)c2N1.Cl.Cl [Polymorph K, (6R)-L-erythro-tetrahydrobiopterin dihydrochloride]

hygroscopicity ([6]; hydrate form D): slightly hygroscopic
Compound: C[C@H](O)[C@H](O)[C@H]1CNc2nc(N)[nH]c(=O)c2N1.Cl.Cl [hydrate D, (6R)-L-erythro-tetrahydrobiopterin dihydrochloride]

hygroscopicity [6]: slightly hygroscopic
Compound: C[C@H](O)[C@H](O)[C@H]1CNc2nc(N)[nH]c(=O)c2N1.Cl.Cl [polymorph J, (6R)-L-erythro-tetrahydrobiopterin dihydrochloride]
